These results are taken from patent publication US20070122483A1, “Fluocinolone acetonide drug substance polymorphic interconversion” (priority 2005, published 2007).

For series [1] the following is noted: background statement; cited from earlier work.
The nature of series [2]: Polymorphic changes of FA after exposure to water (slurry), followed by 13C CP/MAS NMR. The series is classed as physicochemical. The note with it: slurry 0.5 g FA in 10 ml water, stirred at room temperature for seven days, filtered and dried. The protocol:
Slurries containing 0.5 g FA in 10 ml of water were covered and stirred at room temperature for seven days. To remove the water, the samples were filtered and dried overnight at room temperature.
Approximately 80-100 mg of sample was packed inside a 7 mm rotor. Magic-angle spinning (MAS) NMR spectra of fluocinolone acetonide (FA) were acquired using a Varian Unity Inova 400 operating at 399.8 and 100.5 MHz for ^1H and ^13C respectively. The spectra were acquired using cross-polarization (CP) with total sideband suppression and a spinning speed of 4 kHz. Additional acquisition and processing parameters are noted below:
All spectra were externally referenced to hexamethylbenzene (HMB) (^13C, aliphatic peak at 17.4 ppm).

Regarding `CC1(C)O[C@@H]2C[C@H]3[C@@H]4C[C@H](F)C5=CC(=O)C=C[C@]5(C)[C@@]4(F)[C@@H](O)C[C@]3(C)[C@]2(C(=O)CO)O1` [Fluocinolone acetonide], in series [1], the solubility in water result was “practically insoluble”. The “polymorphic changes after exposure to water for an extended time period” value in series [2] is on record as “all polymorphic forms interconvert to the same form”.
